viability, T/C and IC50 data for 3 compounds are collected here from PubChem BioAssay AID2060902 (Molecular Pharmacology Branch, DTP, NCI, 2025).

Where “and” joins values, the source holds several entries; their conditions need not be identical. Equal entries are not always repeated.

The assay concerns 485368-065-R3-J5-PDC spheroids with HUVEC/MSC, viability. Briefly: Anticancer human tumor 485368-065-R3-J5-PDC patient-derived pancreatic carcinoma cell line growth inhibition [RAS]. The note with it: for viability, T/C: stronger effect = lower value. In short, it runs like this:
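Agents were tested in combination matrices in half-log decrements from a top concentration at or near clinical Cmax (10 microM if undetermined). Targets were multi-cell spheroids of tumour lines plus HUVEC and MSC stromal cells.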
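Also: spheroids exposed to agents for seven days before readout.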

In the case of `CC1(O)CCCC1n1c(=O)c(C(F)F)cc2cnc(NC3CCN(S(C)(=O)=O)CC3)nc21` (stereo unspecified), the viability, T/C – broadly, the ratio of treated to control – was 104% [middle of 4 runs] (compound 0.0316 µM); 74% [middle of 4 runs] (compound 0.1 µM); 50.7% [middle of 4 runs] (compound 0.316 µM); 42.3% (2×) and 46.1% and 41.8% (compound 1 µM); 47.1% [middle of 4 runs] (compound 3.16 µM); 19.6% [middle of 4 runs] (compound 10 µM). For the same compound, the IC50 – broadly, the midpoint of a concentration-inhibition curve – (curve of compound) was 469 nM [middle of 4 runs].
For `CCN1CCN(Cc2ccc(Nc3ncc(F)c(-c4cc(F)c5nc(C)n(C(C)C)c5c4)n3)nc2)CC1` + C=CC(=O)N1CCN(c2nc(OCC3CCCN3C)nc3c(F)c(-c4nc(N)cc(C)c4C(F)(F)F)c(Cl)cc23)C(C)C1, the IC50 (curve of first compound, second compound 0.00316 µM) is 316 nM; the half-inhibitory concentration (IC50) (curve of first compound, second compound 0.01 µM) was found to be 300 nM; the IC50 (curve of first compound, second compound 0.0316 µM) came to 454 nM; the concentration for half-maximal inhibition (IC50) (curve of first compound, second compound 0.1 µM) stood at 644 nM; the IC50 (curve of first compound, second compound 0.316 µM) was 604 nM; the concentration for half-maximal inhibition (IC50) (curve of first compound, second compound 1 µM) was 627 nM. For the same compound, the viability, T/C is 107% (second compound 0.00316 µM, first compound 0.00316 µM); 95.8% (second compound 0.00316 µM, first compound 0.01 µM); 82.5% (second compound 0.00316 µM, first compound 0.0316 µM); 61.7% (second compound 0.00316 µM, first compound 0.1 µM); 48.1% (second compound 0.00316 µM, first compound 0.316 µM); 47% (second compound 0.00316 µM, first compound 1 µM). In addition, the viability, T/C is 107% (second compound 0.01 µM, first compound 0.00316 µM); 96.7% (second compound 0.01 µM, first compound 0.01 µM); 81.3% (second compound 0.01 µM, first compound 0.0316 µM); 64.3% (second compound 0.01 µM, first compound 0.1 µM); 49.6% (second compound 0.01 µM, first compound 0.316 µM); 38% (second compound 0.01 µM, first compound 1 µM). The viability, T/C reads like this: (second compound 0.0316 µM, first compound 0.00316 µM) 106%; (second compound 0.0316 µM, first compound 0.01 µM) 98.8%; (second compound 0.0316 µM, first compound 0.0316 µM) 82.1%; (second compound 0.0316 µM, first compound 0.1 µM) 73.4%; (second compound 0.0316 µM, first compound 0.316 µM) 52.9%; (second compound 0.0316 µM, first compound 1 µM) 40.5%. Besides, the viability, T/C (second compound 0.1 µM, first compound 0.00316 µM) was 94.8%; the viability, T/C (second compound 0.1 µM, first compound 0.01 µM) is 88.1%; the viability, T/C (second compound 0.1 µM, first compound 0.0316 µM) was 90.1%; the viability, T/C (second compound 0.1 µM, first compound 0.1 µM) is 76.8%; the viability, T/C (second compound 0.1 µM, first compound 0.316 µM) was 60.2%; the viability, T/C (second compound 0.1 µM, first compound 1 µM) was 43.8%. Further, the viability, T/C reads like this: (second compound 0.316 µM, first compound 0.00316 µM) 97.5%; (second compound 0.316 µM, first compound 0.01 µM) 96.2%; (second compound 0.316 µM, first compound 0.0316 µM) 81%; (second compound 0.316 µM, first compound 0.1 µM) 65.5%; (second compound 0.316 µM, first compound 0.316 µM) 62.4%; (second compound 0.316 µM, first compound 1 µM) 42.7%. Also, the viability, T/C runs as follows: (second compound 1 µM, first compound 0.00316 µM) 106%; (second compound 1 µM, first compound 0.01 µM) 88.3%; (second compound 1 µM, first compound 0.0316 µM) 80.3%; (second compound 1 µM, first compound 0.1 µM) 68%; (second compound 1 µM, first compound 0.316 µM) 57.3%; (second compound 1 µM, first compound 1 µM) 44.8%.
Consider `C#Cc1c(F)ccc2cc(O)cc(-c3ncc4c(N5CC6CCC(C5)N6)nc(OCC56CCCN5CC(F)C6)nc4c3F)c12` (stereo unspecified), for which the viability, T/C is, setting by setting: (compound 0.0316 µM) 105% [middle of 8 runs]; (compound 0.1 µM) 108% [middle of 8 runs]; (compound 0.316 µM) 100% [middle of 8 runs]; (compound 1 µM) 99.4% [middle of 8 runs]; (compound 3.16 µM) 76.5% [middle of 8 runs]; (compound 10 µM) 42.4% [middle of 8 runs]. Where the note is “compound alone, run of 07/15/2024”, the half-maximal inhibitory concentration (IC50) is 7.73 µM [middle of 8 runs].
